Test results: the OligoGym collection
“And” between values parts separate entries of the source, which are not always exact repeats. Identical values can stand only once. HELM strings list units from the 5' end as sugar, base in round brackets, then linkage (d deoxyribose, r ribose, m 2'-O-methyl, p phosphodiester). Methylation of C is not given here. [moe] = 2'-O-(2-methoxyethyl) (MOE); [cEt] = constrained ethyl (cEt); [sp] = phosphorothioate linkage

Target: HBV
Conditions: ASO

## RNA1{[moe](A)[sp].[moe](A)[sp].[moe](C)[sp].[moe](T)[sp].[moe](G)[sp].d(G)[sp].d(A)[sp].d(G)[sp].d(C)[sp].d(C)[sp].d(A)[sp].d(C)[sp].d(C)[sp].d(A)[sp].[moe](G)[sp].[moe](C)}$$$$V2.0
HepG2, 0.07 µM
  target mRNA inhibition: 50% and 39%

## RNA1{[moe](A)[sp].[moe](A)[sp].[moe](G)[sp].[cEt](C)[sp].d(G)[sp].d(A)[sp].d(A)[sp].d(G)[sp].d(T)[sp].d(G)[sp].d(C)[sp].d(A)[sp].d(C)[sp].[cEt](A)[sp].[moe](C)[sp].[moe](G)[sp].[moe](G)}$$$$V2.0
HepG2, 0.009375 µM
  target mRNA inhibition: 28%
HepG2, 0.01875 µM
  target mRNA inhibition: 27%
HepG2, 0.0375 µM
  target mRNA inhibition: 42%
HepG2, 0.075 µM
  target mRNA inhibition: 59%
HepG2, 0.15 µM
  target mRNA inhibition: 81%
HepG2, 0.3 µM
  target mRNA inhibition: 88%

## RNA1{[moe](A)[sp].[moe](A)[sp].[moe](G)[sp].[moe](C)[sp].[moe](G)[sp].[moe](A)[sp].d(A)[sp].d(G)[sp].d(T)[sp].d(G)[sp].d(C)[sp].d(A)[sp].d(C)[sp].d(A)[sp].d(C)[sp].[moe](G)[sp].[moe](G)}$$$$V2.0
HepG2, 0.0092593 µM
  target mRNA inhibition: 20%
HepG2, 0.0277778 µM
  target mRNA inhibition: 36%
HepG2, 0.07 µM
  target mRNA inhibition: 92% and 73%
HepG2, 0.0833333 µM
  target mRNA inhibition: 54%
HepG2, 0.25 µM
  target mRNA inhibition: 76%

## RNA1{[moe](A)[sp].[moe](A)[sp].[moe](G)[sp].[moe](C)[sp].[moe](G)[sp].d(A)[sp].d(A)[sp].d(G)[sp].d(T)[sp].d(G)[sp].d(C)[sp].d(A)[sp].d(C)[sp].d(A)[sp].[moe](C)[sp].[moe](G)}$$$$V2.0
HepG2, 0.07 µM
  target mRNA inhibition: 71% and 68%

## RNA1{[moe](A)[sp].[moe](A)[sp].[moe](G)[sp].d(C)[sp].d(G)[sp].d(A)[sp].d(A)[sp].d(G)[sp].d(T)[sp].d(G)[sp].d(C)[sp].d(A)[sp].[moe](C)[sp].[moe](A)[sp].[moe](C)[sp].[moe](G)}$$$$V2.0
HepG2, 0.07 µM
  target mRNA inhibition: 74% and 64%

## RNA1{[moe](A)[sp].[moe](A)[sp].[moe](T)[sp].[moe](T)[sp].d(T)[sp].d(A)[sp].d(T)[sp].d(G)[sp].d(C)[sp].d(C)[sp].d(T)[sp].d(A)[sp].d(C)[sp].[moe](A)[sp].[moe](G)[sp].[moe](C)[sp].[moe](C)}$$$$V2.0
HepG2, 0.07 µM
  target mRNA inhibition: 40% and 36%

## RNA1{[moe](A)[sp].[moe](A)[sp].[moe](T)[sp].d(T)[sp].d(T)[sp].d(A)[sp].d(T)[sp].d(G)[sp].d(C)[sp].d(C)[sp].d(T)[sp].d(A)[sp].[moe](C)[sp].[moe](A)[sp].[moe](G)[sp].[moe](C)[sp].[moe](C)}$$$$V2.0
HepG2, 0.07 µM
  target mRNA inhibition: 56% and 39%

## RNA1{[moe](A)[sp].[moe](A)[sp].d(G)[sp].d(A)[sp].d(T)[sp].d(G)[sp].d(A)[sp].d(G)[sp].d(G)[sp].d(C)[sp].d(A)[sp].[moe](T)[sp].[moe](A)[sp].[moe](G)[sp].[moe](C)[sp].[moe](A)[sp].[moe](G)}$$$$V2.0
HepG2, 0.07 µM
  target mRNA inhibition: 72% and 68%

## RNA1{[moe](A)[sp].[moe](A)[sp].d(T)[sp].d(T)[sp].d(T)[sp].d(A)[sp].d(T)[sp].d(G)[sp].d(C)[sp].d(C)[sp].d(T)[sp].[moe](A)[sp].[moe](C)[sp].[moe](A)[sp].[moe](G)[sp].[moe](C)[sp].[moe](C)}$$$$V2.0
HepG2, 0.07 µM
  target mRNA inhibition: 52% and 48%

## RNA1{[moe](A)[sp].[moe](C)[sp].[moe](C)[sp].[moe](A)[sp].[moe](A)[sp].[moe](T)[sp].d(T)[sp].d(T)[sp].d(A)[sp].d(T)[sp].d(G)[sp].d(C)[sp].d(C)[sp].d(T)[sp].d(A)[sp].[moe](C)[sp].[moe](A)}$$$$V2.0
HepG2, 0.07 µM
  target mRNA inhibition: 5% and 18%

## RNA1{[moe](A)[sp].[moe](C)[sp].[moe](C)[sp].[moe](A)[sp].[moe](A)[sp].d(T)[sp].d(T)[sp].d(T)[sp].d(A)[sp].d(T)[sp].d(G)[sp].d(C)[sp].d(C)[sp].d(T)[sp].[moe](A)[sp].[moe](C)[sp].[moe](A)}$$$$V2.0
HepG2, 0.07 µM
  target mRNA inhibition: 33% and 18%

## RNA1{[moe](A)[sp].[moe](C)[sp].[moe](C)[sp].[moe](A)[sp].[moe](C)[sp].d(T)[sp].d(G)[sp].d(A)[sp].d(A)[sp].d(C)[sp].d(A)[sp].d(A)[sp].d(A)[sp].d(T)[sp].[moe](G)[sp].[moe](G)}$$$$V2.0
HepG2, 0.07 µM
  target mRNA inhibition: 60% and 52%

## RNA1{[moe](A)[sp].[moe](C)[sp].[moe](C)[sp].[moe](A)[sp].d(C)[sp].d(T)[sp].d(G)[sp].d(A)[sp].d(A)[sp].d(C)[sp].d(A)[sp].d(A)[sp].d(A)[sp].[moe](T)[sp].[moe](G)[sp].[moe](G)[sp].[moe](C)}$$$$V2.0
HepG2, 0.07 µM
  target mRNA inhibition: 60% and 61%

## RNA1{[moe](A)[sp].[moe](C)[sp].[moe](G)[sp].[moe](T)[sp].[moe](G)[sp].[moe](C)[sp].d(A)[sp].d(G)[sp].d(A)[sp].d(G)[sp].d(G)[sp].d(T)[sp].d(G)[sp].d(A)[sp].d(A)[sp].[moe](G)[sp].[moe](C)}$$$$V2.0
HepG2, 0.07 µM
  target mRNA inhibition: 78% and 58%

## RNA1{[moe](A)[sp].[moe](C)[sp].[moe](G)[sp].d(T)[sp].d(G)[sp].d(C)[sp].d(A)[sp].d(G)[sp].d(A)[sp].d(G)[sp].d(G)[sp].d(T)[sp].[moe](G)[sp].[moe](A)[sp].[moe](A)[sp].[moe](G)[sp].[moe](C)}$$$$V2.0
HepG2, 0.07 µM
  target mRNA inhibition: 79% and 72%

## RNA1{[moe](A)[sp].[moe](C)[sp].[moe](T)[sp].[moe](A)[sp].d(G)[sp].d(T)[sp].d(A)[sp].d(A)[sp].d(A)[sp].d(C)[sp].d(T)[sp].d(G)[sp].d(A)[sp].[moe](G)[sp].[moe](C)[sp].[moe](C)}$$$$V2.0
HepG2, 0.07 µM
  target mRNA inhibition: 62% and 63%

## RNA1{[moe](A)[sp].[moe](C)[sp].[moe](T)[sp].[moe](G)[sp].d(G)[sp].d(A)[sp].d(G)[sp].d(C)[sp].d(C)[sp].d(A)[sp].d(C)[sp].d(C)[sp].d(A)[sp].[moe](G)[sp].[moe](C)[sp].[moe](A)}$$$$V2.0
HepG2, 0.07 µM
  target mRNA inhibition: 45% and 20%

## RNA1{[moe](A)[sp].[moe](C)[sp].[moe](T)[sp].d(A)[sp].d(G)[sp].d(T)[sp].d(A)[sp].d(A)[sp].d(A)[sp].d(C)[sp].d(T)[sp].d(G)[sp].[moe](A)[sp].[moe](G)[sp].[moe](C)[sp].[moe](C)}$$$$V2.0
HepG2, 0.07 µM
  target mRNA inhibition: 64% and 69%

## RNA1{[moe](A)[sp].[moe](C)[sp].[moe](T)[sp].d(G)[sp].d(G)[sp].d(A)[sp].d(G)[sp].d(C)[sp].d(C)[sp].d(A)[sp].d(C)[sp].d(C)[sp].[moe](A)[sp].[moe](G)[sp].[moe](C)[sp].[moe](A)[sp].[moe](G)}$$$$V2.0
HepG2, 0.07 µM
  target mRNA inhibition: 67% and 65%

## RNA1{[moe](A)[sp].[moe](C)[sp].d(C)[sp].d(A)[sp].d(A)[sp].d(T)[sp].d(T)[sp].d(T)[sp].d(A)[sp].d(T)[sp].d(G)[sp].[moe](C)[sp].[moe](C)[sp].[moe](T)[sp].[moe](A)[sp].[moe](C)[sp].[moe](A)}$$$$V2.0
HepG2, 0.07 µM
  target mRNA inhibition: 54% and 47%

## RNA1{[moe](A)[sp].[moe](C)[sp].d(G)[sp].d(T)[sp].d(G)[sp].d(C)[sp].d(A)[sp].d(G)[sp].d(A)[sp].d(G)[sp].d(G)[sp].[moe](T)[sp].[moe](G)[sp].[moe](A)[sp].[moe](A)[sp].[moe](G)[sp].[moe](C)}$$$$V2.0
HepG2, 0.0092593 µM
  target mRNA inhibition: 20%
HepG2, 0.0277778 µM
  target mRNA inhibition: 25%
HepG2, 0.07 µM
  target mRNA inhibition: 78%
HepG2, 0.0833333 µM
  target mRNA inhibition: 69%
HepG2, 0.25 µM
  target mRNA inhibition: 89%

## RNA1{[moe](A)[sp].[moe](G)[sp].[moe](A)[sp].[moe](G)[sp].d(G)[sp].d(T)[sp].d(G)[sp].d(A)[sp].d(A)[sp].d(G)[sp].d(C)[sp].d(G)[sp].d(A)[sp].[moe](A)[sp].[moe](G)[sp].[moe](T)}$$$$V2.0
HepG2, 0.07 µM
  target mRNA inhibition: 52% and 54%

## RNA1{[moe](A)[sp].[moe](G)[sp].[moe](A)[sp].[moe](T)[sp].d(G)[sp].d(A)[sp].d(G)[sp].d(G)[sp].d(C)[sp].d(A)[sp].d(T)[sp].d(A)[sp].d(G)[sp].[moe](C)[sp].[moe](A)[sp].[moe](G)[sp].[moe](C)}$$$$V2.0
HepG2, 0.07 µM
  target mRNA inhibition: 45% and 40%

## RNA1{[moe](A)[sp].[moe](G)[sp].[moe](A)[sp].d(A)[sp].d(G)[sp].d(T)[sp].d(C)[sp].d(C)[sp].d(A)[sp].d(C)[sp].d(C)[sp].d(A)[sp].[moe](C)[sp].[moe](G)[sp].[moe](A)[sp].[moe](G)[sp].[moe](T)}$$$$V2.0
HepG2, 0.07 µM
  target mRNA inhibition: 41% and 44%

## RNA1{[moe](A)[sp].[moe](G)[sp].[moe](A)[sp].d(G)[sp].d(G)[sp].d(T)[sp].d(G)[sp].d(A)[sp].d(A)[sp].d(G)[sp].d(C)[sp].d(G)[sp].d(A)[sp].[cEt](A)[sp].[cEt](G)[sp].[cEt](T)}$$$$V2.0
HepG2, 0.07 µM
  target mRNA inhibition: 69% and 74%

## RNA1{[moe](A)[sp].[moe](G)[sp].[moe](A)[sp].d(T)[sp].d(G)[sp].d(A)[sp].d(G)[sp].d(G)[sp].d(C)[sp].d(A)[sp].d(T)[sp].d(A)[sp].d(G)[sp].[cEt](C)[sp].[cEt](A)[sp].[cEt](G)}$$$$V2.0
HepG2, 0.07 µM
  target mRNA inhibition: 50% and 70%

## RNA1{[moe](A)[sp].[moe](G)[sp].[moe](G)[sp].[moe](C)[sp].[moe](A)[sp].[moe](T)[sp].d(A)[sp].d(G)[sp].d(C)[sp].d(A)[sp].d(G)[sp].d(C)[sp].d(A)[sp].d(G)[sp].d(G)[sp].[moe](A)[sp].[moe](T)}$$$$V2.0
HepG2, 0.07 µM
  target mRNA inhibition: 71% and 50%

## RNA1{[moe](A)[sp].[moe](G)[sp].[moe](G)[sp].d(C)[sp].d(A)[sp].d(T)[sp].d(A)[sp].d(G)[sp].d(C)[sp].d(A)[sp].d(G)[sp].d(C)[sp].[moe](A)[sp].[moe](G)[sp].[moe](G)[sp].[moe](A)[sp].[moe](T)}$$$$V2.0
HepG2, 0.07 µM
  target mRNA inhibition: 55% and 53%

## RNA1{[moe](A)[sp].[moe](G)[sp].[moe](G)[sp].d(C)[sp].d(A)[sp].d(T)[sp].d(A)[sp].d(G)[sp].d(C)[sp].d(A)[sp].d(G)[sp].d(C)[sp].d(A)[sp].[cEt](G)[sp].[cEt](G)[sp].[cEt](A)}$$$$V2.0
HepG2, 0.07 µM
  target mRNA inhibition: 69% and 77%

## RNA1{[moe](A)[sp].[moe](G)[sp].[moe](T)[sp].d(T)[sp].d(C)[sp].d(C)[sp].d(G)[sp].d(C)[sp].d(A)[sp].d(G)[sp].d(T)[sp].d(A)[sp].[moe](T)[sp].[moe](G)[sp].[moe](G)[sp].[moe](A)}$$$$V2.0
HepG2, 0.07 µM
  target mRNA inhibition: 46% and 58%
